Laboratory results as given in PubChem BioAssay AID540269 (Sanford-Burnham Center for Chemical Genomics, 2011).
Where “and” joins values, the source holds several entries; their conditions need not be identical. Equal values may be shown once. Calls of active or inactive are those of the source. No rule for the calls is given here.

Each compound was assayed against glucose-6-phosphate dehydrogenase-6-phosphogluconolactonase (Plasmodium falciparum 3D7) (assay: inhibition of P. falciparum G6PD activity – biochemical, kinetic NADPH detection, orthogonal assay, dose response (AID 540269)). Details: purified PfG6PD-6PGL.

Q: `COc1cccc(C2(c3cccc(OC)c3)CC2C(=O)Nc2ccc(F)cc2)c1` (configuration not stated) was tested. Which IC50 did it give?
A: > 80 µM (inactive)

Q: How did the IC50 turn out when `Cc1cc(C)c(S(=O)(=O)/N=C2/C=C(SCC(=O)O)C(=O)c3ccccc32)cc1C` was run?
A: > 80 µM (inactive)

Q: `O=C(CN1C(=O)C2C3C=CC(C3)C2C1=O)OCC(=O)c1ccc([N+](=O)[O-])cc1` (configuration not stated) was tested. Which IC50 did it give?
A: > 80 µM (inactive)

Q: For `O=c1c2ccccc2sn1-c1ccc(S(=O)(=O)N2CCCC2)cc1`, which IC50 is on record?
A: 28.4 µM

Q: With `O=S(=O)(Nc1ccccc1F)c1cccc(NC(=S)NCCN2CCOCC2)c1` as the compound, how does the IC50 read?
A: 50.2 µM

Q: For `COc1ccc(-n2c(=S)[nH]c3c(sc(=S)n3-c3ccccc3)c2=O)c(OC)c1`, which IC50 is on record?
A: > 80 µM (inactive)

Q: For `CCN1/C(=C/C=C/C=C/C=C/c2sc3ccccc3[n+]2CC)Sc2ccccc21`, which IC50 is on record?
A: > 80 µM (inactive)

Q: With `COc1ccc(/C=C/c2nc3ccccc3n2C)cc1` as the compound, how does the IC50 read?
A: 17.7 µM

Q: For `CCOc1ccccc1NC(=O)CCCc1nc2ccccc2c(=O)[nH]1`, which IC50 is on record?
A: > 80 µM (inactive)

Q: `Cc1nnc(N/N=C\c2ccc(-c3cccc(C(=O)O)c3)o2)n1N` was tested. Which IC50 did it give?
A: 40.1 µM

Q: For `Oc1ccc(-c2cn3c(n2)SCC3)cc1O`, which IC50 is on record?
A: 46.5 µM

Q: With `COc1cc(/C=C2\CC/C(=C\c3cc(OC)c(O)c(OC)c3)C2=O)cc(OC)c1O` as the compound, how does the IC50 read?
A: > 80 µM (inactive)

Q: With `COC(=O)c1ccccc1NC1=C/C(=N\S(=O)(=O)c2cccs2)c2ccccc2C1=O` as the compound, how does the IC50 read?
A: 35.7 µM and 60.4 µM

Q: `CC(=O)Nc1ccc(S(=O)(=O)/N=C2\C(=O)c3ccccc3C([O-])=C2n2cc[n+](-c3ccccn3)c2)cc1` was tested. Which IC50 did it give?
A: > 80 µM (inactive)

Q: With `CC1=NOC(=O)/C1=C\c1ccc(-c2ccccc2Br)o1` as the compound, how does the IC50 read?
A: > 80 µM (inactive)

Q: Which IC50 does the source give for `COc1cc(C(=O)ON=C2C=C(C)C(=O)C(C)=C2)cc(OC)c1OC` here?
A: > 80 µM (inactive)

Q: How did the IC50 turn out when `O=C(O)c1ccccc1NS(=O)(=O)c1cccc(-n2sc3ccccc3c2=O)c1` was run?
A: 15.3 µM

Q: How did the IC50 turn out when `CCN=c1scc(C)n1/N=C/c1ccc(O)c(O)c1O` was run?
A: 39.2 µM

Q: With `Cc1ccc(NC(=O)c2cc(N3C(=O)C=CC3=O)ccc2N2CCOCC2)cc1Cl` as the compound, how does the IC50 read?
A: > 80 µM (inactive)

Q: For `Cc1nc2ccccn2c1-c1ccnn1S(=O)(=O)c1ccc(F)cc1`, which IC50 is on record?
A: > 80 µM (inactive)

Q: How did the IC50 turn out when `CN1C(=O)CSc2ccc(NC(=O)N3CCc4ccccc43)cc21` was run?
A: > 80 µM (inactive)

Q: Which IC50 does the source give for `Clc1nssc1=Nc1nncs1` here?
A: 33.4 µM

Q: With `O=C(CSc1nc2cc(Cl)ccc2s1)c1ccco1` as the compound, how does the IC50 read?
A: > 80 µM (inactive)

Q: How did the IC50 turn out when `COc1cc(N(C)C)ccc1C=c1c2ccccc2n2c1cc(-c1ccccc1)[n+]2C` was run?
A: > 80 µM (inactive)

Q: Which IC50 does the source give for `Cc1c(N=C2C=C(Br)C(=O)C(Br)=C2)c(=O)n(-c2ccccc2)n1C` here?
A: > 80 µM (inactive)

Q: `Cc1ccc(NC(=O)c2ccc(Cl)c(N3C(=O)C=CC3=O)c2)cc1` was tested. Which IC50 did it give?
A: 28.2 µM

Q: With `COc1cc(CN2CCCC(C(=O)c3ccc4c5c(cccc35)CC4)C2)cc(OC)c1O` (configuration not stated) as the compound, how does the IC50 read?
A: 28.4 µM

Q: With `NCCNc1ccc(C(=O)N2c3ccccc3Sc3ccccc32)cc1[N+](=O)[O-]` as the compound, how does the IC50 read?
A: 23.5 µM

Q: How did the IC50 turn out when `COc1cc(NC(C)CCc2ccccc2)cc(OC)c1OC` (configuration not stated) was run?
A: > 80 µM (inactive)

Q: For `Cn1c(=O)c2c([nH]c(=S)n2CCCc2ccccc2)n(C)c1=O`, which IC50 is on record?
A: 72.8 µM

Q: For `CCN(CC)c1ccc(NC(=O)c2ccccc2Br)cc1S(=O)(=O)Nc1ccccc1OC`, which IC50 is on record?
A: 59.2 µM

Q: `O=C(O)c1ccc(-n2c(-c3cc(-c4ccco4)[nH]n3)n[nH]c2=S)cc1` was tested. Which IC50 did it give?
A: 40.8 µM

Q: How did the IC50 turn out when `O=c1[nH]c(NCCO)c(N=Cc2ccccc2)c(=O)[nH]1` was run?
A: > 80 µM (inactive)

Q: How did the IC50 turn out when `[O-][N+](=Cc1ccccc1)c1ccc(Cl)cc1` was run?
A: > 80 µM (inactive)

Q: `CCn1c(=O)n(CC)c2cc(N3CCCC3)c(NC(=O)c3cccc(C)c3)cc21` was tested. Which IC50 did it give?
A: > 80 µM (inactive)

Q: For `CCC(=O)OCCNc1cc(Sc2nc3ccccc3s2)c2nonc2c1[N+](=O)[O-]`, which IC50 is on record?
A: > 80 µM (inactive)

Q: How did the IC50 turn out when `O=[N+]([O-])c1ccc(N/N=C/c2ccc(O)c(O)c2O)c(S(=O)(=O)N2CCOCC2)c1` was run?
A: 75.5 µM

Q: With `Cc1ccc(-c2csc(NC(=O)c3ccccc3F)c2C(=O)O)cc1` as the compound, how does the IC50 read?
A: 53.7 µM

Q: For `COC(=O)C1=C(C(=O)OC)SC2(S1)C(C(=O)OC)=C(C(=O)OC)Sc1c2ssc1=O`, which IC50 is on record?
A: > 80 µM (inactive)

Q: For `CC(=O)Nc1cc2c(cc1[N+](=O)[O-])-c1ccccc1C2O` (configuration not stated), which IC50 is on record?
A: > 80 µM (inactive)

Q: For `CCOc1ccccc1C=NNC(=O)CCCCC(=O)NN=Cc1ccccc1OCC`, which IC50 is on record?
A: > 80 µM (inactive)

Q: `O=C(NC1=CC(=O)c2ccccc2C1=O)c1ccccc1` was tested. Which IC50 did it give?
A: 38.2 µM

Q: For `O=c1[nH]nc(CNc2ccc(O)cc2)c2ccccc12`, which IC50 is on record?
A: > 80 µM (inactive)

Q: For `Oc1ccc(C2C[C@H]3CC[C@@H]2C3)cc1O` (some centres not stated), which IC50 is on record?
A: 48.6 µM

Q: With `COc1cc(N=Cc2c(CO)cnc(C)c2O)cc(OC)c1OC` as the compound, how does the IC50 read?
A: 30.5 µM

Q: How did the IC50 turn out when `O=C1NC(=O)N(c2ccccc2)C(=O)/C1=C/c1ccc([N+](=O)[O-])s1` was run?
A: > 80 µM (inactive)

Q: How did the IC50 turn out when `COc1cc(N)c2ncccc2c1SC` was run?
A: 38.8 µM

Q: How did the IC50 turn out when `COc1ccc(Nc2cc(C)c3c(O)cccc3n2)cc1` was run?
A: > 80 µM (inactive)

Q: Which IC50 does the source give for `Cc1cc(O)c(C(C)C)cc1N=Cc1ccc([N+](=O)[O-])cc1` here?
A: > 80 µM (inactive)

Q: `CN(C)Cc1cc(O)c(CN(C)C)cc1O` was tested. Which IC50 did it give?
A: 25.6 µM

Q: `CN1/C(=C\C(=O)c2cccs2)Sc2ccccc21` was tested. Which IC50 did it give?
A: 26.1 µM

Q: Which IC50 does the source give for `O=C(NCCCN1CCOCC1)c1sc2cc([N+](=O)[O-])ccc2c1Cl` here?
A: 38.5 µM

Q: How did the IC50 turn out when `O=C(CCC(=O)OCC(=O)c1ccc([N+](=O)[O-])cc1)Nc1ccccc1Cl` was run?
A: > 80 µM (inactive)

Q: Which IC50 does the source give for `CCCCCCCCn1sccc1=O` here?
A: 66.4 µM

Q: For `Cc1cc(O)c(C(C)C)cc1N=Cc1ccccc1[N+](=O)[O-]`, which IC50 is on record?
A: > 80 µM (inactive)

Q: Which IC50 does the source give for `COc1cc(NCc2ccccc2)c2ncn(Cc3ccccc3)c2c1` here?
A: > 80 µM (inactive)

Q: `COc1cc(N=c2ssnc2Cl)cc(OC)c1OC` was tested. Which IC50 did it give?
A: 34 µM

Q: How did the IC50 turn out when `N#C/C(C(=O)Nc1ccc(Cl)cc1)=C(/S)Nc1ccccc1` was run?
A: 41.5 µM

Q: Which IC50 does the source give for `c1cc(CNc2ccc3c(c2)OCO3)ccn1` here?
A: > 80 µM (inactive)

Q: For `O=C1C=CC(=O)N1CCCCCCCCCCN1C(=O)C=CC1=O`, which IC50 is on record?
A: > 80 µM (inactive)

Q: Which IC50 does the source give for `CCN1CCCC1CNC(=O)c1ccc2c(c1)NC(=O)/C(=C\c1ccccc1F)S2` (configuration not stated) here?
A: 8.64 µM

Q: How did the IC50 turn out when `Cc1ccc(NC(=O)Cn2sc3nc(C)cc(C)c3c2=O)c(Cl)c1` was run?
A: > 80 µM (inactive)

Q: How did the IC50 turn out when `Cc1ccc(S(=O)(=O)NNc2ccccc2)cc1` was run?
A: 54.1 µM

Q: With `OCCN1CCN(C(=S)c2ccc(-c3ccccc3)cc2)CC1` as the compound, how does the IC50 read?
A: > 80 µM (inactive)

Q: Which IC50 does the source give for `O=C1C=CC2=C3c4cc(O)c(O)cc4CC3(O)COC2=C1O` (configuration not stated) here?
A: 37.8 µM

Q: For `Cc1cc(C)c2c(=N)c3ccccc3n(CCCCCCCCn3c4ccccc4c(=N)c4c(C)cc(C)nc43)c2n1`, which IC50 is on record?
A: 50.3 µM

Q: `O=C(COC(=O)c1cnccn1)c1ccc([N+](=O)[O-])cc1` was tested. Which IC50 did it give?
A: > 80 µM (inactive)

Q: Which IC50 does the source give for `Cc1ccnc(-n2sc3ccccc3c2=O)n1` here?
A: 26.4 µM

Q: Which IC50 does the source give for `CN(CCO)c1cc(Sc2nc3ccccc3s2)c2nonc2c1[N+](=O)[O-]` here?
A: > 80 µM (inactive)

Q: How did the IC50 turn out when `O=C(CSc1nc2ccccc2[nH]1)NC1CCCc2ccccc21` (configuration not stated) was run?
A: > 80 µM (inactive)

Q: How did the IC50 turn out when `O=c1[nH]sc2cc(F)ccc12` was run?
A: 56.2 µM

Q: With `c1cncc(CNc2ccc3c(c2)OCO3)c1` as the compound, how does the IC50 read?
A: > 80 µM (inactive)

Q: Which IC50 does the source give for `CCOc1ccccc1NS(=O)(=O)c1c(C)noc1C` here?
A: > 80 µM (inactive)

Q: `O=c1c2ccccc2sn1-c1cc(S(=O)(=O)N2CCOCC2)ccc1N1CCCC1` was tested. Which IC50 did it give?
A: 12.5 µM

Q: Which IC50 does the source give for `COc1cc(N=c2ssnc2Cl)cc(OC)c1` here?
A: > 80 µM (inactive)

Q: For `CCOc1ccccc1CNc1ccc(O)cc1`, which IC50 is on record?
A: 46.7 µM

Q: For `O=[N+]([O-])c1c(NCCCO)cc(Sc2nc3ccccc3s2)c2nonc12`, which IC50 is on record?
A: 73.7 µM
